Earlier results, collected in US9969730B2, “Stable SNS-595 compositions and methods of preparation” (Sunesis Pharmaceuticals, Inc., priority 2009, dated 2018).

How the values were obtained:
[1] = test system: various cancer cell lines
xenografts = details: in vivo
[2] = test system: acute myeloid leukemia and ovarian cancer; details: human cancer patients

CN[C@H]1CN(c2ccc3c(=O)c(C(=O)O)cn(-c4nccs4)c3n2)C[C@@H]1OC [SNS-595, (+)-1,4-dihydro-7-[(3S,4S)-3-methoxy-4-methylamino-1-pyrrolidinyl]-4-oxo-1-(2-thiazolyl)-1,8-naphthyridine-3-carboxylic acid]
preclinical activity against various cancer cell lines [1]: preclinical activity
preclinical activity against xenografts (xenografts): preclinical activity
clinical activity in the treatment of acute myeloid leukemia and ovarian cancer [2]: clinical activity
